Data set [1] deals with oral bacteria. The data set can be described thus: Alamar Blue assay of antibacterial efficacy in the presence of SLS. In kind it is cell-based, oral bacteria from human saliva. The settings on record: 1 hour after addition of dye; for presence or absence of live bacteria (indicated by color): Alamar Blue assay in the presence of SLS; for Color of Solution: Alamar Blue, 10 mg active + 20 mg of 30 weight % SLS solution + 5 ml oral bacteria solution, 37° C., blue to red indicates live bacteria. Here is the method:
Table 1 describes the results of an assay evaluating the antibacterial efficacy of an exemplary CPC-ZnCl2 complex of the present invention, in the presence of an anionic surfactant. […] A negative control was also prepared adding 20 mg (+/− 0.9 mg) of the 30 weight % SLS aqueous solution and 5 ml of the prepared oral bacteria solution to deionized water instead of the antibacterial ingredient. The samples were then placed in a 37° C. oven and shaken at 100 RPM for 30 minutes. 200 μL of Alamar Blue dye was then added to each sample and placed back in the 37° C. oven and shaken at 100 RPM. The samples were then monitored every 30 minutes, with the results 1 hour after addition of the dye recorded in Table 1.

Where [2] appears, read: deionized water, physiological temperature (36-37° C.).
Where [3] appears, read: deionized water, room temperature (23-24° C.).
Where [4] appears, read: deionized water, room temperature (23-24° C.), even after 24 hours of aging.

Like-named read-outs stand apart in the source and are kept apart here.

With `[Cl-].[Cl-].[Zn+2]` [ZnCl2, zinc chloride], in data set [1], the “presence or absence of live bacteria (indicated by color)” value is recorded as “presence of live bacteria” and the “Color of Solution” value is “Purple”.
For `CCCCCCCCCCCCCCCC[n+]1ccccc1` [CPC, Cetylpyridinium chloride] the same measures were “presence of live bacteria” and “Pink”.
Regarding `CCCCCCCCCCCCCCCC[n+]1ccccc1.CCCCCCCCCCCCCCCC[n+]1ccccc1.[Cl][Zn-2]([Cl])([Cl])[Cl]` [CPC-ZnCl2 complex, [(C21H38N)2][ZnCl4]], in data set [1], the “presence or absence of live bacteria (indicated by color)” value is given as “absence of live bacteria” and the “Color of Solution” value was “Blue”. Under setting [2], the “solubility of 1.0 weight % aqueous solution” value is “soluble” and the “solubility of 10 weight % aqueous solution” value is recorded as “not fully soluble”. In addition, under setting [3], the “solubility of 0.1 weight % aqueous solution” value was “soluble” and the “solubility of 0.5 weight % aqueous solution” value is listed as “soluble”. Also, under setting [4], the “solubility of 1.0 weight % aqueous solution” value is recorded as “undissolved” and the “solubility of 10.0 weight % aqueous solution” value is reported as “undissolved”. Under “water”, the “reduction in solubility compared to the CPC and ZnCl2 reactants separately” value is given as no less than 25 fold.

The values are drawn from patent US11384101B2, “Oral care compositions” (priority 2017, dated 2022).
